Structures are written as SMILES.

For data set [1], the system named is Wistar rats with spinal cord injury. Kind of data set: Spinal cord injury model (20 g compression on lower thoracic cord for 20 minutes). The class given is in vivo, rat. The source says:
The present inventors have investigated the effects of repetitive or continuous intravenous administration of ginsenoside Rb1 using rats with spinal cord injury and the effects were compared with those of repetitive or continuous intravenous administration of a crude saponin fraction of medicinal ginseng. If pressure is loaded on certain spinal segments such as the lower thoracic cord, not only nerve cells (neurons) in the gray matter of the same region but also fiber tracts or pathways in the white matter of the same region are damaged. The damages to the fiber tracts or pathways of the white matter are further developed to the distal portions (caudal portions) as well as causing the secondary degeneration of the origins of the fiber tract or pathways, namely the upper nerve cell bodies (i.e. origins) which project fibers (nerve processes) to the fiber tracts or pathways. As a result, the damages to the fiber tracts or pathways of the white matter in the lower thoracic cord, which received compression loading, induce the secondary degeneration of the origins (nerve cell bodies) sending fibers (also termed nerve processes or axons) to the fiber tracts or pathways as well as the secondary degeneration of fiber tracts located distal to the lower thoracic cord (i.e. lumbar cord and sacral cord) to cause paraplegia of both limbs. Further, since the innervation from the brain regions proximal to the lumbar cord and sacral cord is cut off due to damage to the lower thoracic cord, the secondary degeneration of nerve cells in the gray matters of the lumbar cord and sacral cord is further induced, as a result, paraplegia of the limbs can not be recovered. For that model of the spinal cord injury, the present inventors have used male Wistar rats (body weight about 300 g) loaded with 20 g of compression on the lower thoracic cord for 20 minutes.
Under inhalation anesthesia by a mixture of nitrous oxide and halothane, the rats were loaded with 20 g of compression on the lower thoracic cord for 20 minutes. After more than 30 minutes passed, ginsenoside Rb1 dissolved in physiological saline was injected once into the left femoral vein (12 μg or 60 μg), thereafter continuous or repetitive intravenous administration of ginsenoside Rb1 was performed for 7 days by using an Alza osmotic minipump (12 μg/day or 60 μ/day). Control animals and sham-operated animals were administered with the same amount of physiological saline (vehicle) alone. The open field locomotor scores [Basso, Bettie and Bresnakan (BBB) scores] were measured in each animal before loading spinal cord injury, on the day of spinal cord injury and from 1st day to 7th day after the spinal cord injury for use as an index of motor functions (Basso D. M. et al., J. Neurotrauma, 13, 343-359, 1996). BBB scores of the sham-operated rats (normal rats) were 20-21.
Under inhalation anesthesia by a mixture of nitrous oxide and halothane, the rats were loaded with 20 g of compression on the lower thoracic cord for 20 minutes. More than 30 minutes later, the crude saponin fraction dissolved in physiological saline was infused once into the left femoral vein (870 μg), thereafter continuous intravenous administration of the crude saponin fraction was performed for 7 days by using an Alza osmotic minipump (870 μg/day). Control animals with spinal cord injuries were administered with the same amount of physiological saline (vehicle) alone. […] These figures are photographs in place of drawings.
Under inhalation anesthesia by a mixture of nitrous oxide and halothane, wistar rats (body weight about 300 g) were loaded with 20 g of compression on the lower thoracic cord for 20 minutes. After they were awakened from anesthesia, the rats with paraplegia in both hindlimbs were allowed to stay for 1 hour and 40 minutes in the cage. […]

In a further data set the test system is cultured nerve cells. Conditions: cited from earlier work.
Data set [2] deals with SH-SP rats with MCA permanent occlusion. To be noted: cited from earlier work.
Data set [3] relates to co-cultures of nerve cells (neurons) and oligodendrocytes. Put plainly: Co-culture of nerve cells and oligodendrocytes, Western blotting of MAP2 and CNPase. The class given is cell-based, rat. The source says: As generally known, in myelinated nerve fibers within brain and nervous tissues, oligodendrocytes form myelin by ensheathing axons of neurons repeatedly. Further, in unmyelinated nerve fibers, processes of oligodendrocytes surround axons of neurons only once. In the brain and nervous tissues, nerve cells (neurons) and oligodendrocytes are at any time holding close positional relationship. The present inventors performed co-cultures of nerve cells and oligodendrocytes to investigate whether or not ginsenoside Rb1 promotes survival of both cells. For that purpose, nerve cells (neurons) were isolated from cerebral cortices of fetal rats at gestational day 17. The mixed brain cell culture was initiated to isolate oligodendrocytes by using the forebrain of newborn rats. Fifty thousands of oligodendrocytes and 500,000 nerve cells were cocultured. To this culture system was added 1 fg/ml to 10 pg/ml ginsenoside Rb1 in DMEM containing 1% fetal calf serum, and the mixed cells were cultured for 5 days. Subsequently, samples for electrophoresis were prepared and contents of the neuron-specific protein MAP2 (microtubule-associated protein 2) and the oligodendrocyte-specific protein CNPase (cyclic nucleotide […]) in the culture well were assayed by means of Western blotting. […]

For the molecule `CC(C)=CCC[C@](C)(O[C@@H]1O[C@H](CO[C@@H]2O[C@H](CO)[C@@H](O)[C@H](O)[C@H]2O)[C@@H](O)[C@H](O)[C@H]1O)[C@H]1CC[C@]2(C)[C@@H]1[C@H](O)C[C@@H]1[C@@]3(C)CC[C@H](O[C@@H]4O[C@H](CO)[C@@H](O)[C@H](O)[C@H]4O[C@@H]4O[C@H](CO)[C@@H](O)[C@H](O)[C@H]4O)C(C)(C)[C@@H]3CC[C@]12C` [ginsenoside Rb1], in data set [1] (compared with rats administered with physiological saline), the “healing of the operative dorsal wounds / ill effects” value is given as “no such ill effects”. Besides, the “motor abilities (BBB scores) at the 7th day after spinal cord injury” value in data set [1] (ginsenoside Rb1 intravenous 12 μg/day and 60 μg/day) was “significantly ameliorated in a dose-dependent manner”. Also, the “bedsore (decubitus)” value in data set [1] (ginsenoside Rb1 intravenous 60 μg/day starting 2 hours after spinal cord injury) is recorded as “hardly observed”. Also, the “paraplegia of both hindlimbs” value in data set [1] (ginsenoside Rb1 intravenous 60 μg/day starting 2 hours after spinal cord injury, from 3-4 days after onset) is on record as “gradually ameliorated”; in data set [1] (ginsenoside Rb1 intravenous 60 μg/day starting more than 30 minutes after compression, 1-2 days later) it was “significantly ameliorated”. Moreover, the “suppression of apoptosis-like nerve cell death and Bcl-xL protein expression in nerve cells” value in the data set with cultured nerve cells (1 fg/ml and 100 fg/ml (tested 1, 100 and 10^5 fg/ml)) is given as “significant effects”. For the same molecule, in the data set with cultured nerve cells (100 fg/ml), the “formation of lipid peroxides” value is given as “slight suppressive action”. In addition, the “concentrations reducing neurotoxicity of glutamic acid” value in the data set on cultured nerve cells (Kim et al. 1998, Liu and Zhang 1995) was 0.11 to 11 µg/mL. Further, in the data set with cultured nerve cells (Tanaka et al. 1998), the “concentration that may protect against apoptosis-like death” value is 500 µM. In addition, the “concentrations reducing necrosis of nerve cells caused by ferrous sulfate” value with cultured nerve cells (added in advance to the culture medium) is 0.1 to 100 fg/mL. Besides, in the data set on cultured nerve cells (high concentration of ginsenoside Rb1, inventors' cell culture experiments), the nerve cell death result is listed as “did not suppress”. Besides, the “metabolic activity of control cultured nerve cells” value with cultured nerve cells (not treated with SNP) is on record as “no effect”. The “concentrations enhancing expression of Bcl-xL in cultured neurons” value in the data set on cultured nerve cells (prior application) is 1˜100 fg/ml. In the data set with cultured nerve cells (sodium nitroprusside treatment (prior application)), the “extracellular concentrations protecting nerve cells injured by SNP” value is 1 to 100 fg/mL. Further, the “cerebral infarction (infarcted area in the cerebral cortex)” value in data set [2] (intracerebroventricular administration after permanent MCA occlusion) is listed as “significant reduction”. In addition, in data set [2] (intravenous 6 or 60 μg/day), the “secondary lesion (degeneration) of the thalamus” value was “significantly inhibits”. The “mean ratio of cerebrocortical infarction compared with saline group” value in data set [2] (intravenous ginsenoside Rb1 (prior applications)) is no more than 50%. In addition, the “cerebral vessels destroyed after MCA permanent occlusion” value in data set [2] (intravenous infusion for 28 days) is “regenerated and reconstructed”. In data set [2] (repetitive or continuous intravenous 6 μg or 60 μg/day), the “cerebral infarct area relative to non-administered group” value is given as “about ¼”. In addition, the “volume/size of cerebral infarct lesion relative to saline (non-administered) group” value in data set [2] (repetitive or continuous intravenous 6 or 60 μg/day for 28 days after MCA permanent occlusion (prior applications)) was “about ¼”. In addition, the “reduction of the volume of the cerebral infarct lesions vs control group” value in data set [2] (repetitive or continuous intravenous low doses after permanent MCA occlusion) is roughly 75%. Besides, the “band of MAP2 and band of CNPase (survival of nerve cells and oligodendrocytes)” value in data set [3] (1 fg/ml to 100 fg/ml, 5 days, vs non-added and 10^4 fg/ml groups) is listed as “obviously intense”. Also, the “concentrations that made intense the MAP2 and CNPase bands” value in data set [3] (FIG. 22) is 1 to 100 fg/mL.

Source of the values: US7235267B1, “Brain cell or nerve cell-protecting agents comprising medicinal ginseng” (priority 1999, dated 2007).
